Results as given in ChEMBL document CHEMBL1201862, “PubChem BioAssay data set” (2004).
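Five compound concentrations were applied to cells in 96-well plates for 48 hours; endpoints were derived by simple linear interpolation of the resulting dose-response curve. Here, GI50 denotes the concentration required for 50% inhibition of growth.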 Activity calls are given as the source filed them. Rule as the data show it: active = GI50 up to about 1.1 µM and inactive = higher.

How the values were obtained:
Assay in all cases: growth of human tumour cells (NCI), 48 h
[1] = tested on: UACC-257
[2] = tested on: OVCAR-3
[3] = tested on: LOX IMVI
[4] = tested on: K562
[5] = tested on: CCRF-CEM
[6] = tested on: Malme-3M
[7] = tested on: NCI-H23
[8] = tested on: OVCAR-5
[9] = tested on: SF-268
[10] = tested on: SK-OV-3
[11] = tested on: OVCAR-4
[12] = tested on: MOLT-4
[13] = tested on: LXFL 529
[14] = tested on: SF-295
[15] = tested on: ACHN
[16] = tested on: HT-29
[17] = tested on: A549

Measured: GI50

N=C(N)NS(=O)(=O)c1ccc(Nc2c3ccccc3nc3c(C(=O)N4CCN(CCO)CC4)cccc23)cc1
inactive: [1] > 100 µM | [2] > 100 µM | [3] > 100 µM | [4] > 100 µM | [5] > 100 µM | [6] > 100 µM | [7] > 100 µM | [8] > 100 µM | [9] > 100 µM | [10] 2.7 µM | [11] > 100 µM | [12] > 100 µM | [13] > 100 µM | [14] > 100 µM | [15] > 100 µM | [16] > 100 µM | [17] > 100 µM

COC(=O)CC(C(C(=O)OCc1ccccc1)C(C)O)N1C(=O)OC(c2ccccc2)C1c1ccccc1 (configuration not stated)
inactive: [1] > 100 µM | [2] > 100 µM | [3] > 100 µM | [4] 81.1 µM | [5] > 100 µM | [6] > 100 µM | [7] > 100 µM | [9] > 100 µM | [11] > 100 µM | [12] 44.2 µM | [13] > 100 µM | [14] 64.6 µM | [15] > 100 µM | [16] > 100 µM | [17] 95.5 µM

COc1ccc(NC(=O)CC(=O)N/N=C/c2ccc(N(CCC#N)S(=O)(=O)c3ccccc3)cc2)cc1
inactive: [1] > 100 µM | [2] > 100 µM | [3] > 100 µM | [4] > 100 µM | [5] > 100 µM | [6] > 100 µM | [7] > 100 µM | [8] > 100 µM | [9] > 100 µM | [10] > 100 µM | [11] > 100 µM | [12] > 100 µM | [13] > 100 µM | [14] > 100 µM | [15] > 100 µM | [16] > 100 µM | [17] > 100 µM

COc1ccccc1NC(=O)c1nc2ccc([N+](=O)[O-])cc2nc1C
inactive: [1] > 100 µM | [2] > 100 µM | [3] > 100 µM | [4] > 100 µM | [5] > 100 µM | [6] > 100 µM | [7] > 100 µM | [8] > 100 µM | [9] > 100 µM | [10] > 100 µM | [11] > 100 µM | [12] > 100 µM | [13] > 100 µM | [15] > 100 µM | [16] > 100 µM | [17] > 100 µM

COc1ccc2oc(C(=O)O)c3c2c1CCC3CCC(=O)O (configuration not stated)
inactive: [1] > 100 µM | [3] > 100 µM | [4] > 100 µM | [5] > 100 µM | [6] > 100 µM | [7] > 100 µM | [8] > 100 µM | [9] > 100 µM | [10] > 100 µM | [11] > 100 µM | [12] > 100 µM | [13] > 100 µM | [14] > 100 µM | [15] > 100 µM | [16] > 100 µM | [17] > 100 µM

COc1ccc(C(=O)C(c2ccc(OC)cc2)C2C(=O)Oc3ccccc32)cc1 (configuration not stated)
inactive: [1] > 10 µM | [2] > 10 µM | [3] > 10 µM | [4] > 10 µM | [5] > 10 µM | [6] > 10 µM | [7] > 10 µM | [8] > 10 µM | [9] > 10 µM | [10] > 10 µM | [11] 5.98 µM | [12] > 10 µM | [13] > 10 µM | [14] > 10 µM | [15] > 10 µM | [16] > 10 µM | [17] > 10 µM

COc1ccccc1NC(=O)C(=O)C(c1cnc2ccc([N+](=O)[O-])cc2n1)[N+](=O)[O-] (configuration not stated)
inactive: [1] > 100 µM | [3] > 100 µM | [4] 31.5 µM | [5] 26 µM | [6] > 100 µM | [7] > 100 µM | [8] > 100 µM | [9] > 100 µM | [10] > 100 µM | [11] > 100 µM | [12] 32.8 µM | [13] 75 µM | [14] > 100 µM | [15] 87.3 µM | [16] > 100 µM | [17] > 100 µM

Cc1cccc2c(=O)c([Se]c3coc4c(C)cccc4c3=O)coc12
inactive: [1] 18.2 µM | [2] 25.2 µM | [3] 20 µM | [4] 69.5 µM | [5] 31.4 µM | [6] 19.1 µM | [7] 17.2 µM | [8] 18.9 µM | [9] 19.6 µM | [10] 17.6 µM | [11] 16.7 µM | [12] 38.6 µM | [13] 14.6 µM | [14] 3.56 µM | [15] 18.4 µM | [16] 25.6 µM | [17] 7.71 µM

O=C1Nc2ccc(Br)cc2/C1=N/Nc1ccc([N+](=O)[O-])cc1
inactive: [1] 20.3 µM | [2] 19.9 µM | [3] 21 µM | [4] 19.6 µM | [5] 33 µM | [6] 24.1 µM | [7] 22 µM | [9] 17.5 µM | [10] 19.5 µM | [11] 17.3 µM | [12] 34.3 µM | [13] 22.8 µM | [14] 11.6 µM | [15] 18.5 µM | [16] 57.9 µM | [17] 19 µM
